Data set [1] concerns A172. Description: Matrigel outgrowth assay/branching assay. The following applies: Homo sapiens, A 172, Table Vb, read-out: Total branching inhibition in Matrigel A172. It is filed as cell-based. The procedure, abridged: (§1)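 Invasive outgrowth into a 3 mg/ml Matrigel gel is judged from images taken after 48, 72 and 96 h of exposure to 3.125, 1.56 or 0.78 μM compound, with DMSO as control. Positive means total inhibition of branching.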

Data set [2] concerns Hs578T. The data set is described as follows: Matrigel outgrowth assay/branching assay. It is filed as cell-based. The conditions noted are these: Homo sapiens, Hs-578T; HS578T cell line; Table Ib; read-out: Total branching inhibition in Matrigel HS578T. The procedure, abridged:
as §1

Data set [3] concerns SF126. Description: Matrigel outgrowth assay/branching assay. It is filed as cell-based. The conditions noted are these: Homo sapiens, SF-126, Table Vb, read-out: Total branching inhibition in Matrigel SF126. In outline:
as §1

Data set [4] relates to U118. Description: Matrigel outgrowth assay/branching assay. The following applies: Table Vb, read-out: Total branching inhibition in Matrigel U118. In kind it is cell-based. The procedure, abridged:
as §1

Data set [5] relates to A172. The data set is described as follows: Cell vitality assay (ATP assay, CellTiter-Glo). It is filed as cell-based. The conditions noted are these: Homo sapiens, A 172; A172, 72 h; Table IIa; read-out: IC50 ATP-Assay after 72 h A172. The procedure, abridged: (§2)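 IC50s reflect 50% loss of ATP-dependent luminescence versus DMSO control after a 72 h treatment of 1000 cells per well across 0.195–12.5 μM compound.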
On the technique in general: In ATP-based viability assays light output follows the ATP content of the culture.

The subject of data set [6] is Hs578T. Description: Cell vitality assay (ATP assay, CellTiter-Glo). In kind it is cell-based. The following applies: Homo sapiens, Hs-578T; HS578T cell line, 72 h; Table Ib; read-out: IC50 ATP-Assay HS578T after 72 h. The procedure, abridged:
as §2

Data set [7] relates to SF126. Description: Cell vitality assay (ATP assay, CellTiter-Glo). It is filed as cell-based. The following applies: Homo sapiens, SF-126; SF126, 72 h; Table IIa; read-out: IC50 ATP-Assay after 72 h SF126. The procedure, abridged:
as §2

Data set [8] has as its system U118. The data set is described as follows: Cell vitality assay (ATP assay, CellTiter-Glo). In kind it is cell-based. The conditions noted are these: U118, 72 h; Table IIa; read-out: IC50 ATP-Assay after 72 h U118. The procedure, abridged: as §2
The test system of data set [9] is Hs578T. The data set is described as follows: Wound healing migration assay. In kind it is cell-based. The conditions noted are these: Homo sapiens, Hs-578T; HS578T cell line; Table Ib. The procedure, abridged:
(§3)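 Compound exposure at 12.5, 6.25 and 3.125 μM, with DMSO control, on scratch-wounded monolayers (150000 cells/24 well, overnight). Wound closure imaged by microscopy, fixed with crystal violet after 48 h or 72 h depending on cell line; IC50 is the concentration giving 50% wound size between t0 and t48/t72.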

Another data set deals with indicated cell line. Description: Wound healing migration assay (Table IV). In kind it is cell-based. The conditions noted are these: compounds at 12.5, 6.25, 3.125 μM, 48 h-72 h. In outline: as §3
Setting [10] is: Homo sapiens, A 172, A172 cells, read-out: IC50 Wound healing Assay A172.
Where [11] appears, read: Homo sapiens, SF-126, SF126 cells, read-out: IC50 Wound healing Assay SF126.
[12] abbreviates: U118 cells, read-out: IC50 Wound healing Assay U118.

Like-named read-outs stand apart in the source and are kept apart here.

The results in this text go back to patent US9169241B2, “Quinolinyloxyphenylsulfonamides” (Max-Planck-Gesellschaft Zur Forderung der Wissenschaften …, priority 2009, dated 2015).

As a reminder, the melting point is the temperature, or range, at which the solid turns liquid. `COc1cc2c(Oc3ccc(NS(=O)(=O)c4ccccc4C(F)(F)F)cc3F)ccnc2cc1OCCCN1CCCCC1` [Example 4, N-{3-Fluoro-4-[6-methoxy-7-(3-piperidin-1-yl-propoxy)-quinolin-4-yloxy]-phenyl}-2-trifluoromethyl-benzenesulfonamide]: the melting point is 173 to 175 °C. Besides, the IC100 with A172 [1] is over 12.5 µM. In the data set with Hs578T [2], the IC50 was at most 10 µM. Further, in the data set with SF126 [3], the IC100 is at most 12.5 µM. For the same compound, in the data set with U118 [4], the IC100 was at most 12.5 µM. Also, in the data set on A172 [5], the IC50 is at most 12.5 µM. In addition, the IC50 in the data set on Hs578T [6] is at most 12.5 µM. Moreover, in the data set on SF126 [7], the IC50 was at most 12.5 µM. Also, in the data set with U118 [8], the IC50 is at most 12.5 µM. The compound also yielded an IC50 with Hs578T [9] of at most 12.5 µM. The IC50 with indicated cell line (setting [10]) is at most 12.5 µM. In addition, in the data set with indicated cell line (setting [11]), the IC50 was at most 12.5 µM. The IC50 in the data set on indicated cell line (setting [12]) was at most 12.5 µM.
As for `COc1cc2c(Oc3ccc(NS(=O)(=O)c4cc(F)ccc4F)cc3F)ccnc2cc1OCCCN1CCCCC1C` (stereo not drawn) [Example 151, 2,5-Difluoro-N-(3-fluoro-4-{6-methoxy-7-[3-(2-methyl-piperidin-1-yl)-propoxy]-quinolin-4-yloxy}-phenyl)-benzenesulfonamide], the melting point was in the range of 120 to 122 °C. In the data set on A172 [1], the IC100 was at most 12.5 µM. Besides, the IC50 with Hs578T [2] was at most 10 µM. In addition, the IC100 with SF126 [3] was at most 12.5 µM. In the data set on U118 [4], the IC100 is at most 12.5 µM. Also, in the data set on A172 [5], the IC50 was at most 12.5 µM. Besides, in the data set with Hs578T [6], the IC50 was at most 12.5 µM. In addition, the IC50 in the data set on SF126 [7] was at most 12.5 µM. Besides, the IC50 in the data set with U118 [8] was at most 12.5 µM. Besides, the IC50 with Hs578T [9] was at most 12.5 µM. In addition, the IC50 with indicated cell line (setting [10]) was at most 12.5 µM. In addition, the IC50 in the data set on indicated cell line (setting [11]) is at most 12.5 µM. The IC50 with indicated cell line (setting [12]) is at most 12.5 µM.
`COc1cc2c(Oc3ccc(NS(=O)(=O)c4cc(F)ccc4F)cc3F)ccnc2cc1OCCCN(C)C` [Example 177, N-{4-[7-(3-Dimethylamino-propoxy)-6-methoxy-quinolin-4-yloxy]-3-fluoro-phenyl}-2,5-difluoro-benzenesulfonamide]: the melting point was in the range of 108 to 110 °C. Further, the IC100 with A172 [1] is at most 12.5 µM. The IC50 in the data set on Hs578T [2] was at most 10 µM. For the same compound, the IC100 with SF126 [3] is at most 12.5 µM. The IC100 in the data set on U118 [4] is at most 12.5 µM. For the same compound, in the data set with A172 [5], the IC50 is at most 12.5 µM. In addition, the IC50 with Hs578T [6] is at most 12.5 µM. Also, the IC50 in the data set on SF126 [7] is at most 12.5 µM. Besides, the IC50 in the data set on U118 [8] was at most 12.5 µM. For the same compound, in the data set with Hs578T [9], the IC50 was at most 12.5 µM. Moreover, the IC50 with indicated cell line (setting [10]) is at most 12.5 µM. Further, the IC50 in the data set with indicated cell line (setting [11]) was at most 12.5 µM. The IC50 with indicated cell line (setting [12]) is at most 12.5 µM.
